We go through eight molecules from US10344060B2 (priority 2013, dated 2019).

Common to all, as to assay: cell-based
The target of experiment [1] is T1, hNav1.7 (Homo sapiens, UniProt Q15858). Particulars: read-out: IC50 (μM) Nav1.7.
For experiment [2], the target named is T2, hNav1.5 (Homo sapiens, UniProt Q14524). Particulars: IonWorks Quattro; Table 6; read-out: IC50 (μM) Nav1.5.
The target of experiment [3] is T3, hNav1.4 (Homo sapiens, UniProt P35499). The format is cell-based. Particulars: Table 6.
A further experiment has as its target hNav1.3 (Homo sapiens, UniProt Q9NY46). The settings on record: IonWorks Quattro; Table 6; read-out: IC50 (μM) Nav1.3.
Experiment [4] concerns the target T1, hNav1.7. The format is cell-based.
In the next experiment the target is hNav1.6 (Homo sapiens, UniProt Q9UQD0). The format is cell-based. The settings on record: Table 15.
Experiment [5] addresses T2, hNav1.5. The settings on record: Table 12; ratio of PX tonic IC50 values.
The target in experiment [6] is T3, hNav1.4. The format is cell-based. Particulars: Table 12; ratio of PX tonic IC50 values.
The mark [7] stands for this setting: ratio of PX tonic IC50 values, Table 11.

The structures appear in SMILES notation. Where two headings read alike, the source gives them in different places.

T2 sequence (Q14524 whole entry): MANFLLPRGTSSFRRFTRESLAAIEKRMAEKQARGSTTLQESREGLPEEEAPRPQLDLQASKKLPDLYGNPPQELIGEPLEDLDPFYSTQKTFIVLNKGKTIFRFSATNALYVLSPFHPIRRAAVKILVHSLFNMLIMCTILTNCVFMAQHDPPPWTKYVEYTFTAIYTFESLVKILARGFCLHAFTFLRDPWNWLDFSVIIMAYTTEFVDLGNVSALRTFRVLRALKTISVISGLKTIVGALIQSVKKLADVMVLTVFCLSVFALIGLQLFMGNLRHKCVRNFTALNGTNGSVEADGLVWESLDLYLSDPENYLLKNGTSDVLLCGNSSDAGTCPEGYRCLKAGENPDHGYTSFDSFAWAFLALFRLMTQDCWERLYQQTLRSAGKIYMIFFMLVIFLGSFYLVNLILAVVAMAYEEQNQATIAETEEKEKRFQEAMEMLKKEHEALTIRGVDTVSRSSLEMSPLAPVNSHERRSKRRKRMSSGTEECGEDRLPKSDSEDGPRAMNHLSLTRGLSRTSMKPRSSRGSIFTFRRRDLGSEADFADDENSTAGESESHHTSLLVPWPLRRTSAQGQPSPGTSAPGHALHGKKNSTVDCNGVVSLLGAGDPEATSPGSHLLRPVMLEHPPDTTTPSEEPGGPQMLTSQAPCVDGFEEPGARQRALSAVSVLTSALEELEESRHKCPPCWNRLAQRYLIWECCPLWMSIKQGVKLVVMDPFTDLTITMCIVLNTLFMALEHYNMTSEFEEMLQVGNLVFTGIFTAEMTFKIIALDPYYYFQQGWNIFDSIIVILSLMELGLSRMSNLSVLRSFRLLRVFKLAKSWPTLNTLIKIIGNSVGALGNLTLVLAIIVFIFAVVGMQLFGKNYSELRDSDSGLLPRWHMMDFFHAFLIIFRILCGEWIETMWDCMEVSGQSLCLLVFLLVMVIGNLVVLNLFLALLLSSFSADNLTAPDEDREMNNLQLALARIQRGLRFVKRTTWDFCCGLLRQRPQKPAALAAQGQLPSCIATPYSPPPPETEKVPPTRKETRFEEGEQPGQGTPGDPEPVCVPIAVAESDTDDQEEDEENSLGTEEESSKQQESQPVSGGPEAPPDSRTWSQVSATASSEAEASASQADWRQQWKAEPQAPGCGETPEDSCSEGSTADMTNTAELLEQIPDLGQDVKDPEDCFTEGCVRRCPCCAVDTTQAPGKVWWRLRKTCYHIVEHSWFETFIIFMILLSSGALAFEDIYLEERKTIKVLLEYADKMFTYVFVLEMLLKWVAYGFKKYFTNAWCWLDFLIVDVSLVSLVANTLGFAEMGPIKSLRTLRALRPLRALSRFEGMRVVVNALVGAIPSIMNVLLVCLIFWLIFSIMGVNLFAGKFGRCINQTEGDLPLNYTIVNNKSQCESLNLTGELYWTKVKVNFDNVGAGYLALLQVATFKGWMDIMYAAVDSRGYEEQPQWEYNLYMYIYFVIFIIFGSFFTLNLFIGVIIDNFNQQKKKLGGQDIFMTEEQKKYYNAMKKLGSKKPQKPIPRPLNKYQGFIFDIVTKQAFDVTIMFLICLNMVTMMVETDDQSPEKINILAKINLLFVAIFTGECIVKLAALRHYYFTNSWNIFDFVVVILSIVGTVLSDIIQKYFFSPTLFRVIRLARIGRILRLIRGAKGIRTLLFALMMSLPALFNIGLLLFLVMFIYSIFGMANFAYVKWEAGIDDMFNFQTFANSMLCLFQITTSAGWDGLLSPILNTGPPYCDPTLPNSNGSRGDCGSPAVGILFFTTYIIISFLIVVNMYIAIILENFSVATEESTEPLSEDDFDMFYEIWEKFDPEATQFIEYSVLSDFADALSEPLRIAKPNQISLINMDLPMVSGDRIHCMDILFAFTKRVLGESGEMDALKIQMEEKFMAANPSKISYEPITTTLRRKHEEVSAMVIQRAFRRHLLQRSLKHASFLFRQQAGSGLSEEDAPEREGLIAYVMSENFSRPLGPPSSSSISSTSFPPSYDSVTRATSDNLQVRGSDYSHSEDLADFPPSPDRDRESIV
T1 sequence (Q15858 whole entry): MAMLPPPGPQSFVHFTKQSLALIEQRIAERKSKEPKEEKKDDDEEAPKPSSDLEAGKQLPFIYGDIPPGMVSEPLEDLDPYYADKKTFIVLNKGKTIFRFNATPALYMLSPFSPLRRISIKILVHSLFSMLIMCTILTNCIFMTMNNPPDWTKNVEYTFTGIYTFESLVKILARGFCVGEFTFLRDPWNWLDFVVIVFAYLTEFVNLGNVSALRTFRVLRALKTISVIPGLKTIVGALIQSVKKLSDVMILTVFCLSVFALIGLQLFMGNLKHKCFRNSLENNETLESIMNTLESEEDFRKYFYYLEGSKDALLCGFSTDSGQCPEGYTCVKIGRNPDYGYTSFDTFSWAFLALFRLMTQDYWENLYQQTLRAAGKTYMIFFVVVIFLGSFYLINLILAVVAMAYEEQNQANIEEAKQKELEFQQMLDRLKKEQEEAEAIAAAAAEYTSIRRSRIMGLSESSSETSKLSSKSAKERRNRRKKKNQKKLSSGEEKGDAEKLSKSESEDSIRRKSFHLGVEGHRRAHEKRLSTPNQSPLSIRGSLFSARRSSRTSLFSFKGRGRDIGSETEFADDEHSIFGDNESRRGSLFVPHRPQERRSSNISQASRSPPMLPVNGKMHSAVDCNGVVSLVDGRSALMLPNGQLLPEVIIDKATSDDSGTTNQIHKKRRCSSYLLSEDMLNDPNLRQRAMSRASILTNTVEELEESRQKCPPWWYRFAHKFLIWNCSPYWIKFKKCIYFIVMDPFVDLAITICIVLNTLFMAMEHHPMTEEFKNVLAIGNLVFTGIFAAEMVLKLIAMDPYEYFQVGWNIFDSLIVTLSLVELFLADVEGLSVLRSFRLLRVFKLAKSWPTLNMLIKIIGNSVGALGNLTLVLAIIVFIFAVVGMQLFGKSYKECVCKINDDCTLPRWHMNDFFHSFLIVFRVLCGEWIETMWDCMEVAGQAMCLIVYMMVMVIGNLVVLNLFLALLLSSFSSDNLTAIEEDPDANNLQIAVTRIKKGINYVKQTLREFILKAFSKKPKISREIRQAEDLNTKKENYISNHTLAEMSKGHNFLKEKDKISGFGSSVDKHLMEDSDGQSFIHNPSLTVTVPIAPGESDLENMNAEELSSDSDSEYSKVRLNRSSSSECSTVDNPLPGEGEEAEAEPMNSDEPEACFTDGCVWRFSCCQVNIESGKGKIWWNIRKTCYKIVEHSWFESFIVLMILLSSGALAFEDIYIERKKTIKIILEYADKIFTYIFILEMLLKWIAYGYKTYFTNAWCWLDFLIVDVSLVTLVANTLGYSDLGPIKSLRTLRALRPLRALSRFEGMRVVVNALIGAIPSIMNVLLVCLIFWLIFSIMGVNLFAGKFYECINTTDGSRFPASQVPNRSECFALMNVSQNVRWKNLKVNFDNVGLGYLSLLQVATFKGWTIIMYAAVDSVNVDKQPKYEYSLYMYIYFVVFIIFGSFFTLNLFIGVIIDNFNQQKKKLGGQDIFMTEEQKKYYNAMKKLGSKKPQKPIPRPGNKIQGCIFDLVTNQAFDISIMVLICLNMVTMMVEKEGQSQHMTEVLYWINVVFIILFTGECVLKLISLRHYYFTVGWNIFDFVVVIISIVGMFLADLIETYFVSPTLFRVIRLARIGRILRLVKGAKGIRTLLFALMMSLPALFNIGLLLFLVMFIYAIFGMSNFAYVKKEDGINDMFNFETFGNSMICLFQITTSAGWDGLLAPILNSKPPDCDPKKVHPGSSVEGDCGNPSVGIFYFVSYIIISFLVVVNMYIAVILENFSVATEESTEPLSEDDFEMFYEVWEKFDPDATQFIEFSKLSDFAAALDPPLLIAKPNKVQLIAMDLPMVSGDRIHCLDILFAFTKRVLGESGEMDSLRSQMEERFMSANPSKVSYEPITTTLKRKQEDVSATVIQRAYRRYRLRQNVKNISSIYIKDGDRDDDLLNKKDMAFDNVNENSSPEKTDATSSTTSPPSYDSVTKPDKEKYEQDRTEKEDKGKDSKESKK

For orientation: IC50 means the midpoint of a concentration-inhibition curve. Take `CC[C@H](C)[C@H](NC(=O)[C@H](CCCCN)NC(=O)[C@H](CCCNC(=N)N)NC(=O)[C@@H]1CSSC[C@@H]2NC(=O)[C@H](C)NC(=O)[C@H](CCCNC(=N)N)NC(=O)[C@H](CCCCN)NC(=O)[C@H](CO)NC(=O)[C@H](CC(=O)O)NC(=O)[C@@H]3CSSC[C@H](NC(=O)[C@H](CCCNC(=N)N)NC(=O)[C@H](CC(C)C)NC(=O)CNC(=O)[C@H](CCC(=O)O)NC(=O)[C@H](CSSC[C@H](NC(=O)[C@@H](N)Cc4ccc(O)cc4)C(=O)N[C@@H](CCC(N)=O)C(=O)N[C@@H](CCCCN)C(=O)N[C@@H](Cc4c[nH]c5ccccc45)C(=O)N[C@@H](CCSC)C(=O)N[C@@H](Cc4c[nH]c5ccccc45)C(=O)N[C@@H]([C@@H](C)O)C(=O)N3)NC2=O)C(=O)N[C@@H](CCCCN)C(=O)N[C@@H](CC(C)C)C(=O)N[C@@H](Cc2c[nH]c3ccccc23)C(=O)N1)C(=O)N[C@@H](CCC(=O)O)C(N)=O` [compound 70]: the IC50 was 0.28 µM at hNav1.7 [1]; over 5 µM at hNav1.5 [2]; over 5 µM on hNav1.4 [3] (IonWorks Quattro, read-out: IC50 (μM) Nav1.4); 5 µM on hNav1.3; 0.261 µM on hNav1.7 [4] (Table 15, read-out: PX hNav1.7 Tonic IC50); over 10 µM on hNav1.6 (read-out: PX hNav1.6 Tonic IC50). The Nav1.4/Nav1.7 at hNav1.4 [3] (ratio of IonWorks Quattro IC50 values) was 18; on hNav1.7 [4] (setting [7]) it was 43. The Nav1.5/Nav1.7 at hNav1.7 [4] (setting [7]) is over 38. In addition, on hNav1.6 (ratio of PX tonic IC50 values), the Nav1.6/Nav1.7 is reported as over 38.

Consider `C#CC[C@H](N)C(=O)NCCOCCOCCOCCOCCOCCOCCOCCOCCOCCOCCOCCOCCC(=O)NCCCC[C@@H]1NC(=O)[C@H](CCCNC(=N)N)NC(=O)[C@H](CCCCN)NC(=O)[C@H](CO)NC(=O)[C@H](CC(=O)O)NC(=O)[C@@H]2CSSC[C@@H]3NC(=O)[C@H](CCC(=O)O)NC(=O)[C@H](CC(C)C)NC(=O)CNC(=O)[C@H](CCC(=O)O)NC(=O)[C@H](CSSC[C@H](NC(=O)[C@@H](N)Cc4ccc(O)cc4)C(=O)N[C@@H](CCC(N)=O)C(=O)N[C@@H](CCCCN)C(=O)N[C@@H](Cc4c[nH]c5ccccc45)C(=O)N[C@@H](CCCC)C(=O)N[C@@H](Cc4c[nH]c5ccccc45)C(=O)N[C@@H]([C@@H](C)O)C(=O)N2)NC(=O)[C@H](CSSC[C@@H](C(=O)N[C@@H](CCCNC(=N)N)C(=O)N[C@@H](CCCCN)C(=O)N[C@H](C(=O)N[C@@H](Cc2c[nH]c4ccccc24)C(N)=O)[C@@H](C)CC)NC(=O)[C@H](Cc2c[nH]c4ccccc24)NC(=O)[C@H](CC(C)C)NC(=O)[C@H](CCCCN)NC3=O)NC1=O` [compound 290], for which the Nav1.5/Nav1.7 on hNav1.5 [5] stood at 12. Besides, on hNav1.4 [6], the Nav1.4/Nav1.7 turned out to be 5.

`C#CC[C@H](N)C(=O)NCCOCCOCCOCCOCCC(=O)NCCCC[C@@H]1NC(=O)[C@H](CCCNC(=N)N)NC(=O)[C@H](CCCCN)NC(=O)[C@H](CO)NC(=O)[C@H](CC(=O)O)NC(=O)[C@@H]2CSSC[C@@H]3NC(=O)[C@H](CCC(=O)O)NC(=O)[C@H](CC(C)C)NC(=O)CNC(=O)[C@H](CCC(=O)O)NC(=O)[C@H](CSSC[C@H](NC(=O)[C@@H](N)Cc4ccc(O)cc4)C(=O)N[C@@H](CCC(N)=O)C(=O)N[C@@H](CCCCN)C(=O)N[C@@H](Cc4c[nH]c5ccccc45)C(=O)N[C@@H](CCCC)C(=O)N[C@@H](Cc4c[nH]c5ccccc45)C(=O)N[C@@H]([C@@H](C)O)C(=O)N2)NC(=O)[C@H](CSSC[C@@H](C(=O)N[C@@H](CCCNC(=N)N)C(=O)N[C@@H](CCCCN)C(=O)N[C@H](C(=O)N[C@@H](Cc2c[nH]c4ccccc24)C(N)=O)[C@@H](C)CC)NC(=O)[C@H](Cc2c[nH]c4ccccc24)NC(=O)[C@H](CC(C)C)NC(=O)[C@H](CCCCN)NC3=O)NC1=O` [compound 291]: the Nav1.5/Nav1.7 at hNav1.5 [5] came out at 100. The Nav1.4/Nav1.7 at hNav1.4 [6] was 38.

Turning to `C#CC[C@H](N)C(=O)NCCOCCOCCOCCOCCOCCOCCOCCOCCOCCOCCOCCOCCC(=O)NCCCC[C@@H]1NC(=O)[C@@H]2CSSC[C@H](NC(=O)[C@@H](N)Cc3ccc(O)cc3)C(=O)N[C@@H](CCC(N)=O)C(=O)N[C@@H](CCCCN)C(=O)N[C@@H](Cc3c[nH]c4ccccc34)C(=O)N[C@@H](CCCC)C(=O)N[C@@H](Cc3c[nH]c4ccccc34)C(=O)N[C@@H]([C@@H](C)O)C(=O)N[C@H]3CSSC[C@H](NC(=O)[C@H](CCC(=O)O)NC(=O)[C@H](CC(C)C)NC(=O)CNC1=O)C(=O)N[C@@H](CCCCN)C(=O)N[C@@H](CC(C)C)C(=O)N[C@@H](Cc1c[nH]c4ccccc14)C(=O)N[C@H](C(=O)N[C@@H](CCCNC(=N)N)C(=O)N[C@@H](CCCCN)C(=O)N[C@H](C(=O)N[C@@H](Cc1c[nH]c4ccccc14)C(N)=O)[C@@H](C)CC)CSSC[C@H](NC(=O)[C@H](C)NC(=O)[C@H](CCCNC(=N)N)NC(=O)[C@H](CCCCN)NC(=O)[C@H](CO)NC(=O)[C@H](CC(=O)O)NC3=O)C(=O)N2` [compound 292], the Nav1.5/Nav1.7 on hNav1.5 [5] was found to be 3. Moreover, the Nav1.4/Nav1.7 at hNav1.4 [6] is given as 2.

`C#CC[C@H](N)C(=O)NCCOCCOCCOCCOCCC(=O)NCCCC[C@@H]1NC(=O)[C@@H]2CSSC[C@H](NC(=O)[C@@H](N)Cc3ccc(O)cc3)C(=O)N[C@@H](CCC(N)=O)C(=O)N[C@@H](CCCCN)C(=O)N[C@@H](Cc3c[nH]c4ccccc34)C(=O)N[C@@H](CCCC)C(=O)N[C@@H](Cc3c[nH]c4ccccc34)C(=O)N[C@@H]([C@@H](C)O)C(=O)N[C@H]3CSSC[C@H](NC(=O)[C@H](CCC(=O)O)NC(=O)[C@H](CC(C)C)NC(=O)CNC1=O)C(=O)N[C@@H](CCCCN)C(=O)N[C@@H](CC(C)C)C(=O)N[C@@H](Cc1c[nH]c4ccccc14)C(=O)N[C@H](C(=O)N[C@@H](CCCNC(=N)N)C(=O)N[C@@H](CCCCN)C(=O)N[C@H](C(=O)N[C@@H](Cc1c[nH]c4ccccc14)C(N)=O)[C@@H](C)CC)CSSC[C@H](NC(=O)[C@H](C)NC(=O)[C@H](CCCNC(=N)N)NC(=O)[C@H](CCCCN)NC(=O)[C@H](CO)NC(=O)[C@H](CC(=O)O)NC3=O)C(=O)N2` [compound 293]: on hNav1.5 [5], the Nav1.5/Nav1.7 came to 1. Besides, the Nav1.4/Nav1.7 at hNav1.4 [6] is recorded as 1.

Take `C#CC[C@H](N)C(=O)N[C@@H](Cc1ccc(O)cc1)C(=O)N[C@H]1CSSC[C@@H]2NC(=O)[C@@H]3CSSC[C@@H](C(=O)N[C@@H](CCCNC(=N)N)C(=O)N[C@@H](CCCCN)C(=O)N[C@H](C(=O)N[C@H](C(N)=O)[C@@H](C)CC)[C@@H](C)CC)NC(=O)[C@H](Cc4c[nH]c5ccccc45)NC(=O)[C@H](CC(C)C)NC(=O)[C@H](CCCCN)NC(=O)[C@H](CSSC[C@H](NC(=O)[C@H]([C@@H](C)O)NC(=O)[C@H](Cc4c[nH]c5ccccc45)NC(=O)[C@H](CCCC)NC(=O)[C@H](Cc4c[nH]c5ccccc45)NC(=O)[C@H](CCCCN)NC(=O)[C@H](CCC(N)=O)NC1=O)C(=O)N[C@@H](CC(=O)O)C(=O)N[C@@H](CO)C(=O)N[C@@H](CCCCN)C(=O)N[C@@H](CCCNC(=N)N)C(=O)N[C@@H](C)C(=O)N3)NC(=O)[C@H](CCC(=O)O)NC(=O)[C@H](CC(C)C)NC(=O)CNC(=O)[C@H](CCC(=O)O)NC2=O` [compound 297]: the Nav1.5/Nav1.7 at hNav1.5 [5] worked out at 642. The Nav1.4/Nav1.7 at hNav1.4 [6] came to 431.

`C#CC[C@H](N)C(=O)N[C@@H](Cc1ccc(O)cc1)C(=O)N[C@H]1CSSC[C@@H]2NC(=O)[C@@H]3CSSC[C@@H](C(=O)N[C@@H](CCCNC(=N)N)C(=O)N[C@@H](CCCCN)C(=O)N[C@H](C(=O)N[C@@H](Cc4c[nH]c5ccccc45)C(N)=O)[C@@H](C)CC)NC(=O)[C@H](Cc4c[nH]c5ccccc45)NC(=O)[C@H](CC(C)C)NC(=O)[C@H](CCCCN)NC(=O)[C@H](CSSC[C@H](NC(=O)[C@H]([C@@H](C)O)NC(=O)[C@H](Cc4c[nH]c5ccccc45)NC(=O)[C@H](Cc4ccccc4)NC(=O)[C@H](Cc4c[nH]c5ccccc45)NC(=O)[C@H](CCCCN)NC(=O)[C@H](CCC(N)=O)NC1=O)C(=O)N[C@@H](CC(=O)O)C(=O)N[C@@H](CO)C(=O)N[C@@H](CCCCN)C(=O)N[C@@H](CCCNC(=N)N)C(=O)N[C@@H](C)C(=O)N3)NC(=O)[C@H](CCC(=O)O)NC(=O)[C@H](CC(C)C)NC(=O)CNC(=O)[C@H](CCC(=O)O)NC2=O` [compound 298]: on hNav1.5 [5], the Nav1.5/Nav1.7 stood at 52. Further, the Nav1.4/Nav1.7 at hNav1.4 [6] came to 44.

For the molecule `C#CC[C@H](N)C(=O)N[C@@H](Cc1ccc(O)cc1)C(=O)N[C@H]1CSSC[C@@H]2NC(=O)[C@@H]3CSSC[C@@H](C(=O)N[C@@H](CCCNC(=N)N)C(=O)N[C@@H](CCCCN)C(=O)N[C@H](C(=O)N[C@@H](Cc4c[nH]c5ccccc45)C(N)=O)[C@@H](C)CC)NC(=O)[C@H](Cc4c[nH]c5ccccc45)NC(=O)[C@H](CC(C)C)NC(=O)[C@H](CCCCN)NC(=O)[C@H](CSSC[C@H](NC(=O)[C@H]([C@@H](C)O)NC(=O)[C@H](Cc4c[nH]c5ccccc45)NC(=O)[C@H](CC(C)C)NC(=O)[C@H](Cc4c[nH]c5ccccc45)NC(=O)[C@H](CCCCN)NC(=O)[C@H](CCC(N)=O)NC1=O)C(=O)N[C@@H](CC(=O)O)C(=O)N[C@@H](CO)C(=O)N[C@@H](CCCCN)C(=O)N[C@@H](CCCNC(=N)N)C(=O)N[C@@H](C)C(=O)N3)NC(=O)[C@H](CCC(=O)O)NC(=O)[C@H](CC(C)C)NC(=O)CNC(=O)[C@H](CCC(=O)O)NC2=O` [compound 299], the Nav1.5/Nav1.7 at hNav1.5 [5] is 2332. Further, the Nav1.4/Nav1.7 at hNav1.4 [6] was 2069.
